Results reported in patent US10196391B2 (Hoffmann-La Roche Inc., priority 2014, dated 2019).

test system: HBsAg; assay: HBsAg assay (CLIA) in HepG2.2.15 cells; format: cell-based, HBV; conditions: Hepatitis B virus, HepG2.2.15, read-out: IC50 (HBsAg assay)
Protocol: HepG2.2.15 cells (Acs et al. Proc Natl Acad Sci USA, 84, (1987), 4641-4), a constitutively HBV-expressing cell line were cultured in DMEM+Glutamax-I medium (Invitrogen, Carlsbad, Calif., USA), supplemented with 10% fetal bovine serum (Invitrogen) and G418 (Invitrogen) at a final concentration of 200 mg/L and maintained in 5% CO2 at 37° C.
HepG2.2.15 cells were seeded in duplicate into white, 96-well plates at 1.5×10^4 cells/well. The cells were treated with a three-fold serial dilution series of the compounds in DMSO. The final DMSO concentration in all wells was 1% and DMSO was used as no drug control.
The HBsAg chemiluminescence immunoassay (CLIA) kit (Autobio Diagnostics Co., Zhengzhou, China, Catalog number: CL0310-2) was used to measure the levels of secreted HBV antigens semi-quantitatively. For the detection 50 μL/well culture supernatant was used and HBsAg was quantified using HBsAg chemiluminescence immunoassay (CLIA) kit (Autobio Diagnostics Co., Zhengzhou, China, Catalog number: CL0310-2), 50 μL of the supernatant was transferred to the CLIA assay plate and 50 μL of enzyme conjugate reagent was added into each well. The plates were sealed and gently agitated for 1 hour at room temperature. The supernatant-enzyme-mixture was discarded and wells were washed 6 times with 300 μL of PBS. The residual liquid was removed by plating the CLIA plate […] on absorbent tissue paper. 25 μL of substrates A and B were added to each well. Luminance was measured using a luminometer (Mithras LB 940 Multimode Microplate Reader) after 10 minutes incubation. Dose-response curves were generated and the IC50 value was extrapolated by using the E-WorkBook Suite (ID Business Solutions Ltd., Guildford, UK). The IC50 was defined as the compound concentration (or conditioned media log dilution) at which HBsAg secretion was reduced by 50% compared to the no drug control.
The compounds according to formula I were tested for their capacity to inhibit HBsAg as described herein.

SMILES	IC50 [µM]
c1ccc(-c2ncc3c(n2)CCN(c2ncccn2)C3)nc1 [Example 37, 2-(2-pyridyl)-6-pyrimidin-2-yl-7,8-dihydro-5H-pyrido[4,3-d]pyrimidine]	4.45
COc1ccnc(-c2ncc3c(n2)CCN(c2cc(F)c(F)c(OC)c2)C3)c1 [Example 24, 6-(3,4-difluoro-5-methoxy-phenyl)-2-(4-methoxy-2-pyridyl)-7,8-dihydro-5H-pyrido[4,3-d]pyrimidine]	1.86
O=[N+]([O-])c1ccccc1N1CCc2nc(-c3ccccn3)ncc2C1 [Example 33, 6-(2-nitrophenyl)-2-(2-pyridyl)-7,8-dihydro-5H-pyrido[4,3-d]pyrimidine]	0.39
COc1ccc2ccc(N3CCc4nc(-c5ncccn5)ncc4C3)cc2n1 [Example 75, 6-(2-methoxy-7-quinolyl)-2-pyrimidin-2-yl-7,8-dihydro-5H-pyrido[4,3-d]pyrimidine]	2.02
CS(=O)(=O)c1ccc(N2CCc3nc(-c4ccccn4)ncc3C2)cc1 [Example 1, 6-(4-methylsulfonylphenyl)-2-(2-pyridyl)-7,8-dihydro-5H-pyrido[4,3-d]pyrimidine]	4.24
COc1cc(N2CCc3nc(-c4ccncn4)ncc3C2)cc(F)c1F [Example 29, 6-(3,4-difluoro-5-methoxy-phenyl)-2-pyrimidin-4-yl-7,8-dihydro-5H-pyrido[4,3-d]pyrimidine]	4.16
COc1cc(N2CCc3cc(-c4ncccn4)ncc3C2)cc(F)c1F [Example 95, 2-(3,4-difluoro-5-methoxy-phenyl)-6-pyrimidin-2-yl-3,4-dihydro-1H-2,7-naphthyridine]	0.061
COc1cc(N2CCc3nc(-c4ccccn4)ncc3C2)ccc1Cl [Example 62, 6-(4-chloro-3-methoxy-phenyl)-2-(2-pyridyl)-7,8-dihydro-5H-pyrido[4,3-d]pyrimidine]	1.34
Clc1ccc(N2CCc3nc(-c4ccccn4)ncc3C2)cc1Cl [Example 49, 6-(3,4-dichlorophenyl)-2-(2-pyridyl)-7,8-dihydro-5H-pyrido[4,3-d]pyrimidine]	1.07
COc1cc(C#N)cc(N2CCc3nc(-c4ncccn4)ncc3C2)c1 [Example 76, 3-methoxy-5-(2-pyrimidin-2-yl-7,8-dihydro-5H-pyrido[4,3-d]pyrimidin-6-yl)benzonitrile]	1.51
CCc1nc(-c2ccccn2)nc2c1CN(c1ccc(S(C)(=O)=O)cc1)CC2 [Example 86]	22.1
COc1cc(N2CCc3nc(-c4ncccn4)ncc3C2)cc(F)c1Cl [Example 78, 6-(4-chloro-3-fluoro-5-methoxy-phenyl)-2-pyrimidin-2-yl-7,8-dihydro-5H-pyrido[4,3-d]pyrimidine]	19.1
COC(=O)c1cc(Br)ccc1N1CCc2nc(-c3ccccn3)ncc2C1 [Example 16, methyl 5-bromo-2-[2-(2-pyridyl)-7,8-dihydro-5H-pyrido[4,3-d]pyrimidin-6-yl]benzoate]	13.7
COc1ccnc(N2CCc3nc(-c4ccccn4)ncc3C2)c1F [Example 70, 6-(3-fluoro-4-methoxy-2-pyridyl)-2-(2-pyridyl)-7,8-dihydro-5H-pyrido[4,3-d]pyrimidine]	1.55
COc1cc(F)cc(N2CCc3nc(-c4ncccn4)ncc3C2)c1 [Example 117, 6-(3-fluoro-5-methoxy-phenyl)-2-pyrimidin-2-yl-7,8-dihydro-5H-pyrido[4,3-d]pyrimidine]	0.157
CS(=O)(=O)c1ccc(N2CCc3nc(-c4ccc(F)cn4)ncc3C2)cc1 [Example 2, 2-(5-fluoro-2-pyridyl)-6-(4-methylsulfonylphenyl)-7,8-dihydro-5H-pyrido[4,3-d]pyrimidine]	10.2
CS(=O)(=O)c1cccc(N2CCc3nc(-c4ccccn4)ncc3C2)c1 [Example 11, 6-(3-methylsulfonylphenyl)-2-(2-pyridyl)-7,8-dihydro-5H-pyrido[4,3-d]pyrimidine]	17.4
Cc1cccnc1-c1ncc2c(n1)CCN(c1ccc(S(C)(=O)=O)cc1)C2 [Example 4, 2-(3-methyl-2-pyridyl)-6-(4-methylsulfonylphenyl)-7,8-dihydro-5H-pyrido[4,3-d]pyrimidine]	17.8
COc1cc(N2CCc3nc(-c4ncccn4)ncc3C2)cc(Cl)c1F [Example 79, 6-(3-chloro-4-fluoro-5-methoxy-phenyl)-2-pyrimidin-2-yl-7,8-dihydro-5H-pyrido[4,3-d]pyrimidine]	0.288

SMILES	IC50 [µM]
COc1cc(N2CCc3nc(-c4ncccn4)ccc3C2)cc(F)c1F [Example 97, 6-(3,4-difluoro-5-methoxy-phenyl)-2-pyrimidin-2-yl-7,8-dihydro-5H-1,6-naphthyridine]	16.4
COc1cccc(N2CCc3nc(-c4ccccn4)ncc3C2)c1 [Example 92, 6-(3-methoxyphenyl)-2-(2-pyridyl)-7,8-dihydro-5H-pyrido[4,3-d]pyrimidine]	2.89
Clc1cc(Cl)nc(N2CCc3nc(-c4ncccn4)ncc3C2)c1 [Example 113, 6-(4,6-dichloro-2-pyridyl)-2-pyrimidin-2-yl-7,8-dihydro-5H-pyrido[4,3-d]pyrimidine]	0.161
COc1nc(-c2ccccn2)nc2c1CN(c1ccc(S(C)(=O)=O)cc1)CC2 [Example 81]	11.3
COC(=O)c1ccc(N2CCc3nc(-c4ccccn4)ncc3C2)cc1F [Example 15, methyl 2-fluoro-4-[2-(2-pyridyl)-7,8-dihydro-5H-pyrido[4,3-d]pyrimidin-6-yl]benzoate]	9.23
Clc1ccc(N2CCc3nc(-c4ccccn4)ncc3C2)cc1 [Example 45, 6-(4-chlorophenyl)-2-(2-pyridyl)-7,8-dihydro-5H-pyrido[4,3-d]pyrimidine]	3.23
COc1cc(N2CCc3nc(-c4ccccn4)ncc3C2)ncc1F [Example 71, 6-(5-fluoro-4-methoxy-2-pyridyl)-2-(2-pyridyl)-7,8-dihydro-5H-pyrido[4,3-d]pyrimidine]	0.33
COc1ccc(N2CCc3nc(-c4ccccn4)ncc3C2)c(F)c1F [Example 61, 6-(2,3-difluoro-4-methoxy-phenyl)-2-(2-pyridyl)-7,8-dihydro-5H-pyrido[4,3-d]pyrimidine]	3.03
OCCCOc1cc(N2CCc3nc(-c4ccccn4)ncc3C2)cc(F)c1F [Example 93, 3-[2,3-difluoro-5-[2-(2-pyridyl)-7,8-dihydro-5H-pyrido[4,3-d]pyrimidin-6-yl]phenoxy]propan-1-ol]	0.314
CC1CN(c2ccc([N+](=O)[O-])cc2)Cc2cnc(-c3ccccn3)nc21 (centres unmarked) [Example 48, 8-methyl-6-(4-nitrophenyl)-2-(2-pyridyl)-7,8-dihydro-5H-pyrido[4,3-d]pyrimidine]	1.38
COCCOc1cc(N2CCc3nc(-c4ccccn4)ncc3C2)ccc1OC [Example 58, 6-[4-methoxy-3-(2-methoxyethoxy)phenyl]-2-(2-pyridyl)-7,8-dihydro-5H-pyrido[4,3-d]pyrimidine]	20.2
CN(C)S(=O)(=O)c1ccc(N2CCc3nc(-c4ccccn4)ncc3C2)cc1 [Example 9, N,N-dimethyl-4-[2-(2-pyridyl)-7,8-dihydro-5H-pyrido[4,3-d]pyrimidin-6-yl]benzenesulfonamide]	16.9
CCOC(=O)c1ccc(N2CCc3nc(-c4ccccn4)ncc3C2)cc1 [Example 31, ethyl 4-[2-(2-pyridyl)-7,8-dihydro-5H-pyrido[4,3-d]pyrimidin-6-yl]benzoate]	16.9
COc1ccc(N2CCc3nc(-c4ccccn4)ncc3C2)cc1 [Example 50, 6-(4-methoxyphenyl)-2-(2-pyridyl)-7,8-dihydro-5H-pyrido[4,3-d]pyrimidine]	21.9
CCC1CN(c2ccc(S(C)(=O)=O)cc2)Cc2cnc(-c3ccccn3)nc21 (centres unmarked) [Example 7, 8-ethyl-6-(4-methylsulfonylphenyl)-2-(2-pyridyl)-7,8-dihydro-5H-pyrido[4,3-d]pyrimidine]	5.17
Fc1cc(OC(F)(F)F)cc(N2CCc3nc(-c4ncccn4)ncc3C2)c1 [Example 118, 6-[3-fluoro-5-(trifluoromethoxy)phenyl]-2-pyrimidin-2-yl-7,8-dihydro-5H-pyrido[4,3-d]pyrimidine]	4.98
Fc1ccc(N2CCc3nc(-c4ccccn4)ncc3C2)c(F)c1 [Example 14, 6-(2,4-difluorophenyl)-2-(2-pyridyl)-7,8-dihydro-5H-pyrido[4,3-d]pyrimidine]	9.51
COc1ccc(-c2ncc3c(n2)CCN(c2ccc(S(C)(=O)=O)cc2)C3)nc1 [Example 5, 2-(5-methoxy-2-pyridyl)-6-(4-methylsulfonylphenyl)-7,8-dihydro-5H-pyrido[4,3-d]pyrimidine]	42.1
COc1cccc(-c2ncc3c(n2)CCN(c2cc(F)c(F)c(OC)c2)C3)n1 [Example 25, 6-(3,4-difluoro-5-methoxy-phenyl)-2-(6-methoxy-2-pyridyl)-7,8-dihydro-5H-pyrido[4,3-d]pyrimidine]	16
